Reference: publication PMC3914206

Biological target: T1, panel of 442 kinases (Homo sapiens, UniProt Q8TD19)
T1 construct: purchased KINOMEscan
T1 sequence (Q8TD19 1-979): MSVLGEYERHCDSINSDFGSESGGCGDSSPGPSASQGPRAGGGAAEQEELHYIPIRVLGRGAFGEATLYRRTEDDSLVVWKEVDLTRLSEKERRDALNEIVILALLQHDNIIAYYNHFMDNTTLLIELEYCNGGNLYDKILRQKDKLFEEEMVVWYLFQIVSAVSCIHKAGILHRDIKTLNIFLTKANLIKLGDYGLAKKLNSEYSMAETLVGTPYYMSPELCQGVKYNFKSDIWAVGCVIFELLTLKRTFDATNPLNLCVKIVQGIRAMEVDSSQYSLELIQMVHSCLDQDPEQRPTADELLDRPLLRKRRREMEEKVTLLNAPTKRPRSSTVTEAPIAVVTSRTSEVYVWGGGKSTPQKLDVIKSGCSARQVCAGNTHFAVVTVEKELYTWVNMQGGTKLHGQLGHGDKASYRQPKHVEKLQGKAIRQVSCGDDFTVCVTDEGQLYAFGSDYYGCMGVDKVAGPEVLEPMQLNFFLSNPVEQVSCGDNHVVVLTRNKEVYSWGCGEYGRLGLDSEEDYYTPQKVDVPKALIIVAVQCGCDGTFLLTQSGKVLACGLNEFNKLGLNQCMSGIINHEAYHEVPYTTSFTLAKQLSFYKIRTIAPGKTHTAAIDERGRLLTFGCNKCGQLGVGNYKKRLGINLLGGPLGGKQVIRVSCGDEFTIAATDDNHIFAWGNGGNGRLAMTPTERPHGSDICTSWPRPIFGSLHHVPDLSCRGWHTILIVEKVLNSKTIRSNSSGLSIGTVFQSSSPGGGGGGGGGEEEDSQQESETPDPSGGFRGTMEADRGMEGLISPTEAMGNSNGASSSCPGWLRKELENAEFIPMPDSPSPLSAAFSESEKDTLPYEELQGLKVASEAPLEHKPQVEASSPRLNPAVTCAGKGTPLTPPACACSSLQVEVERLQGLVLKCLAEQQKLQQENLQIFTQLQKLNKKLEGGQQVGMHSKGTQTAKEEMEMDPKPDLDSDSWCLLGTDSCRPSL
Format: binding
Conditions: Compound Concentration 10 µM
Text: We assessed the selectivity of members of this scaffold using the KINOMEscan methodology across a near comprehensive panel of 442 kinases [[18,27]].

Row | Compound | KINOMEscan: NEK9
1 | COc1cc(C(=O)N2CCC(N3CCN(C)CC3)CC2)ccc1Nc1ncc2c(n1)N(C)c1ccccc1C(=O)N2C [15 (LRRK2-IN-1)] | 100
2 | COc1cc(C(=O)N2CCC(N3CCN(C)CC3)CC2)ccc1Nc1ncc2c(n1)N1CCc3cccc(c31)C(=O)N2C [Compound 24] | 87
3 | COc1cc(C(=O)N2CCC(N3CCN(C)CC3)CC2)ccc1Nc1ncc2c(n1)N(C1CCCC1)c1ccccc1C(=O)N2C [Compound 25, 11-cyclopentyl-2-((2-methoxy-4-(4-(4-methylpiperazin-1-yl)piperidine-1-carbonyl)phenyl)amino)-5-methyl-5H-benzo[e]pyrimido[5,4-b][1,4]diazepin-6(11H)-one] | 98
4 | CCOc1cc(C(=O)N2CCC(N3CCN(C)CC3)CC2)ccc1Nc1ncc2c(n1)N(C1CCCC1)c1ccccc1C(=O)N2C [Compound 26] | 100
